Assay results reported in patent US7994307B2, “RNAi modulation of the BCR-ABL fusion gene and uses thereof” (Alnylam Pharmaceuticals, Inc., priority 2004, dated 2011).
Entries after “also recorded” stand apart in the source; their conditions may differ.

Columns and labels:
[1] = tested on: p210Bcr-Abl (e14a2); assay: Western blot of Bcr-Abl protein in 32Dp210/e14a2 cells after siRNA electroporation; assay type: cell-based, murine; details: for Bcr-Abl protein levels: 32Dp210/e14a2 cells
Protocol: Protein assay: Western blot analysis was performed ˜24 h following the last siRNA -treatment or ˜96 hours following transfection with the pSUPER siRNA-expression vector as described (Goetz A W, et al., Cancer Res. 2001, 61:7635)
(§1) siRNA-transfection: siRNAs were transfected into the murine cell lines 32Dp210Bcr-Abl-e14a2, -e13a2, 32Dp190Bcr-Abl-e1a2 and the human leukemic cell line MEG-01 using electroporation. Cell density was adjusted to 2.5-5×10^6/ml in RPMI/10% FCS. 800 μl of this cell suspension were mixed with siRNA in a 4 mm electroporation cuvette. Cells were electroporated by means of an EasyJect electroporator (peqlab, Erlangen, Germany) using a single-pulse protocol (250 V, 1800 μF, 8.). This treatment was repeated in intervals of 24 hours as indicated.
(§2) In 32Dp210Bcr-Abl-e14a2, -e13a2 and 32Dp190Bcr-Abl-e1a2 inhibition of Bcr-Abl can be compensated by addition of exogenous growth factor to the medium. Therefor, recombinant murine IL-3, (1 ng/ml) was added to the growth medium during siRNA treatment of these cell lines. Following the last siRNA treatment cells were washed and factor deprived before starting the different examination procedures (Western blot/MTT).
We used three murine hematopoetic 32D cell lines expressing either p210Bcr-Abl (e14a2), p210Bcr-Abl (e13a2) or p190Bcr-Abl (e1a2) to study the effectiveness of siRNAs to silence each of these human Bcr-Abl fusion breakpoint variants. In addition, experiments were performed in human Ph+leukemia cells (K562, MEG-01). All siRNAs used were directed to breakpoints of the Bcr and Abl sequence of the respective Bcr-Abl mRNA. RNAi-efficiency was assayed via analysis of Bcr-Abl protein levels and by monitoring the biological effect using MTT viability assay.

[2] = tested on: Bcr-Abl (e14a2); assay: Western blot of Bcr-Abl protein in primary CD34 positive cells of CML patients (e14a2); assay type: cell-based, human; details: two electroporations, compared to BAF8 or BAF16
Bcr-Abl (e14a2), sequence (P11274+P00519 fused): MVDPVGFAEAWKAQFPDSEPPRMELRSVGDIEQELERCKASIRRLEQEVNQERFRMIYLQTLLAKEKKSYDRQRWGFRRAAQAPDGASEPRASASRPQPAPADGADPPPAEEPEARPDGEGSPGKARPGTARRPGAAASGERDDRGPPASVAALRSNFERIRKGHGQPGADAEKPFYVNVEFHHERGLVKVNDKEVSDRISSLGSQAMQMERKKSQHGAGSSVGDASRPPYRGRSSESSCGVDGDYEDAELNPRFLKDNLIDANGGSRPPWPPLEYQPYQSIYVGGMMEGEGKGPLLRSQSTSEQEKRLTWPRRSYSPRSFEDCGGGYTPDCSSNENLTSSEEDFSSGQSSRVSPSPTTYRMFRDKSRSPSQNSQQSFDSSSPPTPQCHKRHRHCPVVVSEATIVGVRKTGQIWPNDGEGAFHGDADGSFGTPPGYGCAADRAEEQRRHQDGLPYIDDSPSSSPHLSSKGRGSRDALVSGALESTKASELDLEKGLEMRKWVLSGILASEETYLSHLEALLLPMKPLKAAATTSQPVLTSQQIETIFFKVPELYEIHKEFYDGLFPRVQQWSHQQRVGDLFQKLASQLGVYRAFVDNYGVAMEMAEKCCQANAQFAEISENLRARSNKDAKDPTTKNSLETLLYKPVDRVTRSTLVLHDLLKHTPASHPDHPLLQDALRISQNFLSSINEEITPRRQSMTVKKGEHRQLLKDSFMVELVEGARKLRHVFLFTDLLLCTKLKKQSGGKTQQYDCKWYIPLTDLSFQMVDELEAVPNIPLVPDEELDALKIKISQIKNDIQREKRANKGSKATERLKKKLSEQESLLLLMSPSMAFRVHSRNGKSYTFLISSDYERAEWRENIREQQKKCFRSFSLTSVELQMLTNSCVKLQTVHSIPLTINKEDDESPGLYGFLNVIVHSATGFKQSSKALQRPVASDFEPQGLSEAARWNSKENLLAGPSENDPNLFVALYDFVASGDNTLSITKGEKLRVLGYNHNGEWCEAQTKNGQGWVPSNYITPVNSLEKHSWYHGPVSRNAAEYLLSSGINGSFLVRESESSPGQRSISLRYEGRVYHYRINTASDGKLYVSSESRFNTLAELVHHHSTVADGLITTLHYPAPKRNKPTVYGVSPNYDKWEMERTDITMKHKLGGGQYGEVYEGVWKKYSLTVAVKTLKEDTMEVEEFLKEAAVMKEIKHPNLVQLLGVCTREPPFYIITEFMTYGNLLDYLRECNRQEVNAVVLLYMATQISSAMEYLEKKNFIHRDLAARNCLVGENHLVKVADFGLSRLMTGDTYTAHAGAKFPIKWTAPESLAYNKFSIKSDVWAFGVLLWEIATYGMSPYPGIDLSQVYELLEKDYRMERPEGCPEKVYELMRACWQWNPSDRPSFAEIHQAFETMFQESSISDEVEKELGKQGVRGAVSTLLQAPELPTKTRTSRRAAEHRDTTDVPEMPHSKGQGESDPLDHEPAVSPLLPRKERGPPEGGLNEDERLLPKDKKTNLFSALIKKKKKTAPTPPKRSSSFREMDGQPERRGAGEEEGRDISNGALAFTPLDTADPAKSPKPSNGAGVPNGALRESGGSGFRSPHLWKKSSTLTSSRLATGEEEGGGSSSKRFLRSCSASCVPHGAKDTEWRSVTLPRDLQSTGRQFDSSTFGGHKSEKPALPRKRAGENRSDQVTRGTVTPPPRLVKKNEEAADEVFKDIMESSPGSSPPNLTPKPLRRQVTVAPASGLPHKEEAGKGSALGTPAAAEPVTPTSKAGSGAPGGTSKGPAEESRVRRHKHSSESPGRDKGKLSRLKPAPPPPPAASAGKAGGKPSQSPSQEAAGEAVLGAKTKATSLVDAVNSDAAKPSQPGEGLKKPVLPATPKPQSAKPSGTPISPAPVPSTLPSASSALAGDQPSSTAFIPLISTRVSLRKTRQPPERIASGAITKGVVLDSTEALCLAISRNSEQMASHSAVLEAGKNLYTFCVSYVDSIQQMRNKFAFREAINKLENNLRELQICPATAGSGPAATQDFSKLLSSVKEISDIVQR
Protocol: FIG. 4: CD34 positive cells isolated from 3 newly diagnosed and untreated Philadelphia chromosome-positive CML patients in chronic phase and positive for bcr-abl-e14a2 by Ficoll-Hypaque density gradient centrifugation and affinity column purification were treated with siRNAs BAF7 (e14a2 specific, Patient 1), BAF8 (mismatch control, Patient 1), BAF12 (e14a2 specific, Patient 2+3), and BAF16 (e13a2 specific, Patient 2+3). Cells were diluted to a density of 2.5×10^6 in 800 μl growth medium, mixed with 12.8 μl of a 50 μM solution of the respective siRNA in a 4-mm electroporation cuvette, and electroporated using a single pulse protocol (250V, 1800 μF). This treatment was repeated after 24 hours, the cells were washed, incubated for another 24 hours, and harvested for western blot analysis. […] Additionally, BAF12 treatment compromised Bcr-Abl activity.
CD34 positive cells were isolated from 3 newly diagnosed and untreated Philadelphia chromosome-positive CML patients in chronic phase. Informed consent was obtained by the patients prior to collection of cells. Mononuclear cells were harvested by Ficoll-Hypaque density gradient centrifugation (Seromed, Berlin, Germany). CD34 positive cells were isolated using a stem cell isolation kit and a MACS column (Miltenyi Biotech, Bergisch Gladbach, Germany) according to manufacturer's instructions. […]

[3] = tested on: 32Dp210/e14a2 cells; assay: MTT viability assay in 32Dp210/e14a2 cells after siRNA electroporation; assay type: cell-based, murine
Protocol: (§3) Survival Assay: Following the last siRNA treatment cells were seeded in 96 well plates and cultivated for another ˜48 hours. Cell survival was then measured by MTT assay as described (Van der Kuip H, et al., Blood. 2001, 98:1532)
as §1, §2

[4] = tested on: M07p210/e14a2 cells; assay: Induction of apoptosis by imatinib mesylate in M07p210/e14a2 cells; assay type: cell-based, human; details: BAF7-treated
[5] = tested on: K562 cells; assay: Viability/growth of K562 cells after lipofection with siRNA; assay type: cell-based, human
Protocol: as §3
For the transfection of siRNA molecules into the human K562 cells we used Lipofectamin™ 2000 (Invitrogen, Karlsruhe). 1.5 Mio. cells were plated in 1.5 ml RPMI/10% FCS w/o antibiotics into a 6 well plate. For each well 500 μl transfection solution was prepared, containing 8.4 μg siRNA and 21 μl Lipofectamin in OPTI-MEM I reduced serum medium (Gibco, Karlsruhe). The cells were incubated 5 hours with the transfection solution, then the medium was changed to RPMI/10% FCS complemented with Penicillin/Streptomycin. When treated several times, cells were counted ˜24 h following treatment, diluted to 1 Mio/ml and seeded again in a 6 well plate (1.5 ml cell suspension per well). Transfection was then repeated exactly as the day before.

p210Bcr-Abl (e14a2), sequence (P11274+P00519 fused): as above

In the case of “BAF7: siRNA duplex, sense SEQ ID No. 1, antisense SEQ ID No. 23, specific for Bcr-Abl-e14a2 (sense CAGAGUUCAAAAGCCCUUCAG; antisense CUGAAGGGCUUUUGAACUCUGCU; listed as RNA, chemistry not given here)”, the Bcr-Abl protein levels ([1]; four consecutive treatments at intervals of 24 h) was “reduced the amount of Bcr-Abl protein to the detection limit; also recorded: almost complete disappearance of Bcr-Abl protein”, the Bcr-Abl protein levels ([1]; single siRNA treatment, Western blot) was “notable reduction; also recorded: significant reduction” and the “recovery of Bcr-Abl protein levels” value ([1]; 32Dp210Bcr-Abl (e14a2) cells, after one single treatment) was “quickly recovered to pre-treatment levels”. For the same substance, the Bcr-Abl protein levels [2] was “significant reduction”, the viability ([3]; four treatments) was “virtual loss of viability; also recorded: virtually complete loss of viability” and the “viability relative to electroporation control cells (EPC, 100%)” value ([3]; single treatment, MTT) was “approximately 59%”. For the same substance, the “viability relative to EPC” value ([3]; treated four times, MTT) was ≤ 2.5%, the “induction of apoptosis by 0.05 μM imatinib mesylate in siRNA-treated cells” value [4] was “significant induction of apoptosis” and the growth ([5]; K562, 48 hours following one single treatment, lipofectamin 2000) was “only a minimal growth reduction”. For the same substance, the viability ([5]; K562, 48 hours following the third lipofection at intervals of 24 hours) was 45%.
